Laboratory results taken from patent US20030134859A1 (SANKYO COMPANY, LIMITED, priority 2000, published 2003).

tested on: ABCA1 mRNA; experiment: Quantitative analysis of ABCA1 mRNA (TaqMan PCR) in RAW264.7 cells; assay type: cell-based, mouse; settings: 100 nM test compound, 24 hr, normalised to β-actin, DMSO = 100
Procedure: The mouse monocyte/macrophage cell line, RAW264.7 (ATCC TIB71) was purchased from Dainippon Pharmaceutical Co., Ltd. As the medium, the Dulbecco's modified Eagle's medium (DMEM medium; GIBCO, Cat. No. 11995-040) containing bovine fetal serum (the final concentration: 10% (v/v), MOREGATE, lot No. 474030), penicillin G (the final concentration: 50 units/mL, GIBCO) and streptomycin (the final concentration: 20 μg/mL, GIBCO) was used.
The culture of RAW264.7 cells was carried out in a CO2 incubator (37° C., 95% R.H., 5% of CO2).
A 2 ml volume of RAW264.7 cells suspension (1×10^6 cells/mL) was plated in each well of a 6-well plate (2×10^6 cells/well) and the cells were incubated for 2 hr in a CO2 incubator. The test compounds dissolved in DMSO were diluted with DMEM medium by 20 times, and were added to the wells at a volume of 4 μL/well (final concentration of the test compound: 100 nM). As the control, the DMSO solution was diluted with the DMEM medium by 20 times, and was added to the wells at the volume of 4 μL/well. After the cells were cultured in a CO2 incubator for 24 hr, the medium was removed and the total RNA was purified by using an RNeasy Mini Kit (Qiagen), according to the protocol attached. The concentration of the RNA in the samples obtained was calculated from absorbance at 260 nm (A260=1=40 μg/ml). Six (6) μg of total RNA were diluted with RNAase-free water so as to be 22.6 μL, which was heated at 65° C. for 10 min, and then was cooled on ice. The RNA in the solution was used as the template, and the cDNA was synthesized by using a First-strand cDNA Synthesis Kit (Amersham Pharmacia Biotech). In this reaction, a solution was prepared having the following composition and was reacted at 37° C. for 1 hr.
After the reaction, 3 μL of soution were collected from each of the reaction mixtures of the test compound-treated cell samples and that of the control cell samples. The mixed solution was used as the standard solution. The standard solution and each reaction solution were purified with a Chroma Spin-100+DEPC-H2O Column according to the protocol attached, and they were used as the template for TaqMan PCR (Template). In order to draw the calibration curve, the standard solution was diluted by every 5 times for 5 steps and each solution was used for TaqMan PCR. TaqMan PCR was carried out in ABCA1 and β-actin. As Primers for use in the TaqMan PCR, 4 oligonucleotides (abca1 forward (S3), abca1 reverse (AS3), β-actin forward (S4) and β-actin reverse (AS4)) were designed which are shown in sequences No. 5 to 8 in the sequence table described later. The synthesis and purification of these 4 oligomers was ordered from Amersham Pharmacia Biotech Co.
As FAM-TAMRA labelled TaqMan Probe, 2 kinds of oligonucleotides (abca1 (p1) and β-actin (p2)) were designed and were ordered from Applied Biosystems Co. to synthesize and purify.
The following reaction mixture of ABCA1 or β-actin was divided into 2 wells of a MicroAmp Optical 96-well Reaction Plate (Applied Biosystem Co.). TaqMan Universal PCR Master Mix was purchased from Applied Biosystem Co.
The plate was covered with a MicroAmp Optical Cap (Applied Biosystems Co.), and TaqMan PCR was carried out by using an ABI PRISM 7,700 Sequence Detection System (Applied Biosystem Co.) under the following conditions:
An analysis was made according to the procedures described in the manual of Sequence Detection Software (Applied Biosystem Co.) and the increased rate of ABCA1 mRNA due to the test compound was calculated based on the following equation.
A: Amount of the ABCA1 mRNA in the presence of the test compound
B: Amount of the β-actin mRNA in the presence of the test compound
C: Amount of the ABCA1 mRNA in the presence of DMSO
D: Amount of the β-actin mRNA in the presence of DMSO
Increase Rate (%) of ABCA1 mRNA=(A/B)/(C/D)×100

Row | Compound | Rate of Increase (%) of ABCA1 mRNA [%]
1 | CCCCCCCCN(CCCC)c1ccc(-c2ccc(NC(=O)c3cc([N+](=O)[O-])ccc3Cl)cc2)cc1.Cl [Example 223, N-[4-[4-(N-Butyl-N-octylamino)phenyl]phenyl]-(2-chloro-5-nitrophenyl)carboxamide mono-hydrochloride] | 204.0
2 | CCCCCCCCN(CCC)c1ccc(-c2ccc(NC(=O)c3cc([N+](=O)[O-])ccc3Cl)cc2)cc1 [Example 224, N-[4-[4-(N-Octyl-N-propylamino)phenyl]phenyl]-(2-chloro-5-nitrophenyl)carboxamide] | 179.0
3 | O=C(Nc1ccc(CCNC(=S)Nc2cccnc2)cc1)c1cc([N+](=O)[O-])ccc1Cl [Example 273, N-[4-[2-(Pyridin-3-yl)aminothiocarbonylaminoethyl]phenyl]-(2-chloro-5-nitrophenyl)carboxamide] | 146.0
